For six molecules, IC50 results are on record in patent US20100063077A1, “PYRIMIDINE DERIVATIVES FOR THE TREATMENT OF AMYLOID-RELATED DISEASES” (SENEXIS LIMITED, priority 2006, published 2010).

Assay [1] addresses T1, Aβ(1-42) (Homo sapiens, UniProt P05067).
T1 construct: dissolving Aβ(1-42) HCl salt in hexafluoroisopropanol (HFIP)
Description: Thioflavin T fluorimetric assay of Aβ(1-42) aggregation. It counts as biochemical. The conditions noted are these: 10 μM Aβ(1-42); read-out: IC50, inhibiting Aβ(1-42) aggregation (thioflavin-T fluorimetric assay). On the procedure:
Aβ(1-42) was prepared for amyloid aggregation and toxicity assays by dissolving Aβ(1-42) HCl salt in hexafluoroisopropanol (HFIP), with brief sonication and vortexing. This solution of the Aβ(1-42) peptide in HIT was stored at 4° C.@2 mM. When required, an aliquot of this stock solution was freeze-dried and dissolved in DMSO to 200 times the required final assay concentration (e.g. 2 mM for a final assay concentration of 10 μM). A 20 mM stock solution of each test compound was prepared in DMSO, and aliquots of these solutions were used to prepare further stock solutions of each test compound in DMSO, ranging in concentration from 3 μM up to 10 mM. These stock solutions were prepared for use as and when required and stored at −20° C. (maximum of 3 freeze-thaw cycles). The 20 mM parent stock solutions were stored frozen at −20° C. The daughter plate is sealed with silver seal and incubated at 37° C. for 24 and 48 hours for the Thioflavin T assay (LeVine and Scholten 1999). The activity of compounds in inhibiting 10 μM Aβ(1-42) aggregation was assessed by using a thioflavin-T fluorimetric assay. At each timepoint, a 50 or 100 μl aliquot is taken from each well of the daughter plate and dispensed into a black 96 well plate. Equal volume (50 or 100 μl) Thioflavin T [40 μM] (in Glycine buffer [50 mM] —NaOH pH 8.5) is added to each well. The plate was shaken and fluorescence was recorded using the top reader setting (10×1 msec), using excitation and emission filters of 440 (±15) and 485 (±10) nm, respectively. Fluorescence readings from equivalent experiments were averaged and % amyloid formation was determined as follows: [formula] Activity of compounds in inhibiting 10 μM Aβ(1-42) aggregation using thioflavin-T fluorimetric assay

For assay [2], the system named is SH SY5Y cells. Description: Cell viability assay for amyloid toxicity using MTT reduction. It counts as cell-based. The conditions noted are these: 10 μM Aβ(1-42), 24 h incubation, read-out: IC50, protecting SH SY5Y cells from a toxic insult of Aβ(1-42) (MTT reduction as measure of cell viability). On the procedure:
Aβ(1-42) was prepared for amyloid aggregation and toxicity assays by dissolving Aβ(1-42) HCl salt in hexafluoroisopropanol (HFIP), with brief sonication and vortexing. This solution of the Aβ(1-42) peptide in HIT was stored at 4° C.@2 mM. When required, an aliquot of this stock solution was freeze-dried and dissolved in DMSO to 200 times the required final assay concentration (e.g. 2 mM for a final assay concentration of 10 μM).
A 20 mM stock solution of each test compound was prepared in DMSO, and aliquots of these solutions were used to prepare further stock solutions of each test compound in DMSO, ranging in concentration from 3 μM up to 10 mM. These stock solutions were prepared for use as and when required and stored at −20° C. (maximum of 3 freeze-thaw cycles). The 20 mM parent stock solutions were stored frozen at −20° C.
The activity of compounds in protecting SH SY5Y cells from a toxic insult of 10 μM Aβ(1-42) was assessed by using inhibition of MTT reduction as a measure of cell viability. An aliquot (3 μl) of test compound [various concentrations] in DMSO is added to 294 μl of Opti-Mem (containing 2% FBS, 1% Pen/Strep, 1% L-Gln) {daughter plate}. The well is mixed thoroughly. Then an aliquot (3 μl) of Aβ(1-42) [2 mM] is added to the daughter plate wells and again mixed thoroughly. 50 μl is then aspirated and dispensed into wells containing 50 μl media+SH SY5Ycells (cells are also plated in Opti-Mein, at ˜30,000 cells/well/50 μl). Final concentrations of compound on cells range from [50 μM] to [˜15 nM] with a final concentration of Aβ(1-42) of [10 μM].
Cell plates are incubated for 24 h and then the MTT assay (Shearman, 1999). is performed. […] The plate was shaken and the absorbance was recorded at both 570 nm and 650 nm. ΔA values were calculated by subtracting absorbance at 650 nm from absorbance at 570 nm, to reduce non-specific background absorbance. ΔA values from equivalent experiments were averaged and % cell viability was determined as follows: […]
In general terms: Formazan colour is commonly taken as a measure of viable cells.

Where two headings read alike, the source gives them in different places.

T1 sequence (P05067 672-713): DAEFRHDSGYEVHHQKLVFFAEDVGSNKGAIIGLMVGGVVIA

As usually defined, the IC50 is the point on the concentration scale where inhibition reaches its midpoint. As for `Oc1cccc(Nc2cnc(Nc3cccc(O)c3)nc2)c1` [Example 2, 2,5-Bis-(3-hydroxyphenylamino)pyrimidine], the 50% inhibitory concentration (IC50) was 32 µM in assay [1] and 14 µM in assay [2] (Homo sapiens, SH-SY5Y).

Consider `Oc1cccc(Nc2ncc(Nc3cccc(C(F)(F)F)c3)cn2)c1` [Example 4, 2-(3-Hydroxyphenylamino)-5-[3-(trifluoromethyl)phenylamino]-pyrimidine], for which the IC50 in assay [1] amounted to 13 µM.

For the molecule `Oc1cccc(Nc2cnc(Nc3cccc(C(F)(F)F)c3)nc2)c1` [Example 8, 2-(3-Trifluoromethylphenylamino)-5-(3-hydroxyphenylamino)-pyrimidine], in assay [1], the IC50 turned out to be 5 µM.

As for `COc1cccc(Nc2cnc(Nc3ccc(Cl)c(Cl)c3)nc2)c1` [Example 10, 2-(3,4-Dichlorophenylamino)-5-(3-methoxyphenylamino)-pyrimidine], the IC50 in assay [1] was 8.5 µM.

Take `CN(c1ccccc1)c1cnc(Nc2cccc(O)c2)nc1` [Example 11, 2-(3-Hydroxyphenylamino)-5-[phenyl(methyl)amino]pyrimidine]: the IC50 amounted to 22 µM in assay [1] and 30 µM in assay [2] (Homo sapiens, SH-SY5Y).

As for `Oc1cccc(Nc2ccc(Nc3cccc(O)c3)nn2)c1` [RS-0406, reference compound], the IC50 in assay [2] stood at 40 µM.
